Data taken from patent publication US20260217652A1, “PHENYL-SUBSTITUTED HETEROARYL COMPOUND AND PHARMACEUTICAL COMPOSITION COMPRISING SAME, PREPARATION METHOD THEREFOR AND USE THEREOF” (SHANGHAI MEIYUE BIOTECH DEVELOPMENT CO., LTD., priority 2023, published 2026).
Read-outs that look alike come from different tables or passages of the source.

Key:
p38 MAPK/MK2 = biological target: T1, p38 MAPK/MK2 (Homo sapiens, UniProt Q16539); assay: In vitro activity assay of p38 MAPK/MK2 (Z-LYTE kinase assay kit); assay type: biochemical; settings: active p38α, inactive MK2, Ser/Thr 4; 1-hour reaction at 20° C.
T1 construct: purchased Carna (p38α); Abcam (MK2) 04-152; 79910
How it was run: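 FRET-based Z-LYTE assay; compound tested from […] top concentration, 5-fold serial dilution, 8 points, duplicate wells, 1% DMSO. Kinase reaction 1 h at 20° C, then development reagent 1 h at room temperature; fluorescence read at Ex 400/Em 445 and 520 nm. IC50 from concentration-effect curve fit.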

p38 MAPK/MK5 = biological target: T2, p38 MAPK/MK5 (Homo sapiens, UniProt Q16539); assay: In vitro activity assay of p38 MAPK/MK5 (Z-LYTE kinase assay kit); assay type: biochemical; settings: active p38α, inactive MK5, Ser/Thr 4; 4-hour reaction at 20° C.
T2 construct: purchased Carna (p38α); Abcam (MK5) 04-152; 217826
Procedure: The inhibitory effect of the compound on p38 MAPK/MK5 was evaluated using the Z-LYTE kinase assay kit (Thermo, PV3177). The test compound was dissolved in DMSO to obtain a 10 mM stock solution and stored at −20° C. for future use. The initial concentration of the compound was […], with 1% DMSO, 5-fold serial dilution, 8 concentrations, and duplicate wells. […] After a 4-hour reaction at 20° C., Development Reagent A diluted 2048-fold was added to each well, followed by incubation at room temperature for 1 hour. The reaction was terminated by adding 5 µL of stop buffer, and the plate was read using a microplate reader (Ex. 400 nm, Em. 445 nm; Ex. 400 nm, Em. 520 nm). The concentration-effect curve was fitted using GraphPad Prism 8 software, and the compound concentration resulting in 50% inhibition, IC50, was calculated.

p38 MAPK/ATF2 = biological target: T3, p38 MAPK/ATF2 (Homo sapiens, UniProt Q16539); assay: In vitro activity assay of p38 MAPK/ATF2 (HTRF); assay type: biochemical; settings: p38α, Human ATF2 Protein, ATP; 35 min at 20° C.
T3 construct: purchased Carna Biosciences (p38α); Sino Biological (ATF2) 04-152; 11599-H20B
Procedure: The inhibitory effect of the compound on p38a-catalyzed ATF2 was evaluated by the HTRF method. The test compound was dissolved in DMSO to obtain a 10 mM stock solution and stored at −20° C. for future use. The initial concentration of the compound was 10 μM, with 0.25% DMSO, 5-fold serial dilution, 8 concentrations, and duplicate wells. The reaction buffer, consisting of 40 mM Tris pH 7.5, 20 mM MgCl2, 0.1 mg/mL BSA, and 50 μM DTT, was used to prepare 3.5×p38α (MAPK14, Carna Biosciences, 04-152) protein working solution, 3.5×Human ATF2 Protein (Sino Biological, 11599-H20B) working solution, and 3.5×ATP working solution. The reaction was terminated with 10 mM EDTA. The final 14 μL reaction system was performed in a 96-well plate (cisbio, 66PL96025), containing 0.29 ng/μL p38a, […] Human ATF2 Protein, and 25 µM ATP. After reacting at 20° C. for 35 min, the pre-prepared antibody solution (cibio, 63ADK015PEG, Phospho-ATF2 Eu Cryptate antibody, Phospho-ATF2 d2 antibody, diluted 40-fold with Detection buffer) was added to each well and incubated overnight at room temperature. The samples were then measured using a microplate reader (HTRF compatible reader). The concentration-effect curve was fitted using GraphPad Prism 8 software, and the compound concentration resulting in 50% inhibition, IC50, was calculated.

[1] = In vitro liver microsome stability, rat; assay type: in vitro ADME; settings: liver microsomes, 0.5 mg/mL microsomes, 1 μM compound, NADPH, 37° C., read-out: Rat liver microsomes Half-life T1/2
Procedure: (§1) The reference compound used in this experiment was Ketanserin, and the final concentration of microsomes in the experimental system was 0.5 mg/mL. The PBS buffer was a 50 mM K2HPO4 buffer. The concentration of the test compound was 1 μM. The microsomes were added to PBS, and the control/test compounds were respectively added to the corresponding reaction systems, mixed thoroughly, and pre-incubated in a 37° C. water bath for 5 minutes. The reaction was initiated by adding 20 mM NADPH solution under 37° C. water bath conditions (for the No NADPH samples, an equal volume of PBS solution was used as a substitute for the 20 mM NADPH solution). At the reaction time points of 0 min, 10 min, 30 mun, 60 min, and 90 min, 30 μL of reaction samples were taken from each reaction system (for the No NADPH samples, sampling was performed at 0 min and 90 min), and the reaction was immediately terminated by adding 300 μL of the internal standard acetonitrile solution. After centrifugation at 4000 rpm, the supernatant was taken and mixed thoroughly with an equal volume of pure water. The samples at each time point were analyzed by LC-MS/MS (AB Triple Quard 5500) to determine the compound content, and the T1/2 was calculated.

[2] = In vitro liver microsome stability, human; assay type: in vitro ADME; settings: liver microsomes, 0.5 mg/mL microsomes, 1 μM compound, NADPH, 37° C., read-out: Human liver microsomes Half-life T1/2
Procedure: as §1

[3] = Pharmacokinetic evaluation in mice; assay type: in vivo; settings: mouse, plasma; for AUC(0-t): read-out: Area under curve AUC0-24 h; for half-life: read-out: Half-life T1/2 (converted)
Procedure: The compound was weighed and dissolved in a mixed solvent of DMAC: Solutol: PBS (1:1:8. After intravenous/gastric administration to mice, whole blood ([…]) was collected at 0.083, 0.25, 0.5, 1, 2, 4, 7, and 24 hours. The samples were anticoagulated with EDTA-K2, immediately centrifuged at 4000 rpm for 5 minutes at 4° C., and the supernatant was frozen in a −80° C. refrigerator. Plasma sample processing: The samples were precipitated with an internal standard-containing CH3CN precipitant, followed by centrifugation at 12700 rpm for 10 min. The supernatant was collected and analyzed by LC-MS/MS (AB Triple Quard 5500) to obtain the plasma drug concentration. The parameters were calculated using a non-compartmental model in Winnolin version 8.1.

[4] = intravenous injection group 1 mg/kg
[5] = po, intragastric administration group 5 mg/kg

T1 sequence (Q16539 whole entry): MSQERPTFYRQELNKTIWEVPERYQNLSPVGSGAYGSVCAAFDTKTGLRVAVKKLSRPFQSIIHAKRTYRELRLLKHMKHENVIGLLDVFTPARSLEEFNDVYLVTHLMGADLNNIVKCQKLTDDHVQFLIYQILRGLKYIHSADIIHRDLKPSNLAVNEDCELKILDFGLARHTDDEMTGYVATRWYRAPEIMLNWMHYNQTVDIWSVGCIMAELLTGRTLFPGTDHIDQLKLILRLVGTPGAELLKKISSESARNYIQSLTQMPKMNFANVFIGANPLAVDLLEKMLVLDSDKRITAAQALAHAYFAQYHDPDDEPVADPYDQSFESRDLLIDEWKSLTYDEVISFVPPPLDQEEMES
T1 sequence (P49137 whole entry partner): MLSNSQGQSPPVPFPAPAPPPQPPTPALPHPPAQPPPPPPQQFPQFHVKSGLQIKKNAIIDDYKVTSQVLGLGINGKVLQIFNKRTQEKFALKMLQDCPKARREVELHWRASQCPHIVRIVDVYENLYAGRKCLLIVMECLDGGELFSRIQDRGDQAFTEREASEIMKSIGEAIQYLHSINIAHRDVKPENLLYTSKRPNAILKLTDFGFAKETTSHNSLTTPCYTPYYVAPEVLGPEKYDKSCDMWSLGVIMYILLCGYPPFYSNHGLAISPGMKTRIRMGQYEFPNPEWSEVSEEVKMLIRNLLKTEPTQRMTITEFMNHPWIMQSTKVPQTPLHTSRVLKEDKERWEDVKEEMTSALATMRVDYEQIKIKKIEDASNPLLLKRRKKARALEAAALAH
T2 sequence (Q16539 whole entry): as the sequence (Q16539 whole entry) above

IC50 (p38 MAPK/MK2): 0.00279 µM
IC50 (p38 MAPK/MK5): 4.34 µM
IC50 (p38 MAPK/ATF2): 1.85 µM
half-life at 1 μM [1]: 2.76 h
half-life at 1 μM [2]: > 4.66 h
AUC(0-t) [3, 4]: 1360 ng·h/mL
clearance ([3]; intravenous injection group 1 mg/kg, read-out: Clearance CL (converted)): 12.3 mL/min/kg
half-life [3, 4]: 0.57 h
C0 ([3]; intravenous injection group 1 mg/kg, read-out: Initial concentration C0): 2150 ng/mL
Vd ([3]; intravenous injection group 1 mg/kg, read-out: Volume of distribution Vd): 0.47 L/kg
AUC(0-t) [3, 5]: 2070 ng·h/mL
bioavailability ([3]; po, intragastric administration group 5 mg/kg, read-out: Bioavailability F %): 30.5%
half-life [3, 5]: 3.24 h
Cmax ([3]; po, intragastric administration group 5 mg/kg, read-out: Maximum concentration Cmax): 979 ng/mL
SMILES: CNC(=O)c1cccc(-c2ncc(C)c(-n3c(C)cc(OCc4ncc(F)cc4F)c(Cl)c3=O)c2F)c1 [Compound 31-P1]
